9 molecules from ChEMBL document CHEMBL1201862, “PubChem BioAssay data set” (2004) can be followed below.

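Method: 48-hour compound exposure of cells in 96-well plates, five concentrations, linear interpolation of endpoints. Abbreviation: GI50, concentration required for 50% inhibition of growth.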 Active and inactive are the calls of the source. Cut-off read from the data, not from the text of the source: active = GI50 up to about 1.1 µM and inactive = higher. A value given as a limit tells only on which side of the number the result lay.

What all share (experiment): growth of human tumour cells (NCI), 48 h
Assay [1] relates to OVCAR-4.
For assay [2], the system named is CAKI-1.
Assay [3] concerns HCT-15.
Assay [4] deals with TK-10.
Assay [5] concerns MOLT-4.
The test system of assay [6] is SN12C.
Assay [7] deals with DLD-1.
Assay [8] deals with NCI-H23.
In assay [9] the test system is SK-OV-3.
In assay [10] the test system is UACC-257.
Assay [11] has as its system Malme-3M.
The subject of assay [12] is SW-620.
The subject of assay [13] is DMS-273.
For assay [14], the system named is M14.
In assay [15] the test system is U-251.
The test system of assay [16] is LOX IMVI.
The subject of assay [17] is SNB-19.
Assay [18] concerns SK-MEL-5.

Turning to `CCNC(=O)CCN(C(=O)O)S(=O)(=O)c1ccc(NC(=O)c2ccccc2)cc1`, the GI50 was > 100 µM (inactive) in assay [1]; > 100 µM (inactive) in [2]; greater than 100 µM in assay [3]; > 100 µM (inactive) in [4]; > 100 µM (inactive) in assay [5]; > 100 µM (inactive) in assay [6]. The GI50 is > 100 µM (inactive) in assay [7]; > 100 µM (inactive) in assay [8]; > 100 µM (inactive) in assay [9]; > 100 µM (inactive) in [10]; > 100 µM (inactive) in [11]; 15.5 µM (inactive) in [12]. Further, the GI50 is 23.8 µM (inactive) in [13]; > 100 µM (inactive) in assay [14]; > 100 µM (inactive) in assay [15]; 22.6 µM (inactive) in assay [16]; > 100 µM (inactive) in assay [17]; > 100 µM (inactive) in [18].
Consider `N#Cc1ccc(/C=C(/C(=O)c2ccccc2)c2ccccc2)cc1`, for which the GI50 in [1] was 10.2 µM (inactive); in assay [2], 14.2 µM (inactive); in [3] it was 12.2 µM; in assay [4] it was 24 µM (inactive); in [5], 2.99 µM (inactive); in assay [6] it was 9.66 µM (inactive). Also, the GI50 is 6.58 µM (inactive) in assay [7]; 15.7 µM (inactive) in assay [8]; 20.5 µM (inactive) in [9]; 12.4 µM (inactive) in [10]; 12.6 µM (inactive) in assay [11]; 2.64 µM (inactive) in assay [12]. In addition, the GI50 in assay [13] is 4.82 µM (inactive); in [14] it was 13.3 µM (inactive); in [15], 12.4 µM (inactive); in assay [16], 2.75 µM (inactive); in [17] it was 19.4 µM (inactive); in [18], 12.8 µM (inactive).
As to `Nc1c(-c2nc3ccccc3[nH]2)sc(=S)n1-c1ccc(Cl)cc1`, the GI50 in [1] was 20 µM (inactive); in assay [2] it was 33 µM (inactive); in [3] it was 25.4 µM; in assay [4], 30 µM (inactive); in assay [5], 31.1 µM (inactive); in assay [6], 21.4 µM (inactive). In addition, the GI50 in [7] was 48.2 µM (inactive); in assay [8], 36.6 µM (inactive); in assay [9] it was 34.3 µM (inactive); in assay [10] it was 25.5 µM (inactive); in assay [11], 36.2 µM (inactive); in assay [12], 39.5 µM (inactive). Besides, the GI50 in assay [13] was 19.8 µM (inactive); in [14] it was 30.3 µM (inactive); in [15], 23.7 µM (inactive); in [16], 26.1 µM (inactive); in assay [17] it was 25.7 µM (inactive); in assay [18] it was 26 µM (inactive).
Regarding `Cc1cc(N(CCC#N)CCC#N)ccc1/C=C/C(=O)Nc1ccccc1Cl`, the GI50 in assay [1] was > 100 µM (inactive); in assay [2], > 100 µM (inactive); in assay [3], greater than 100 µM; in assay [4], > 100 µM (inactive); in [5], > 100 µM (inactive); in assay [6], > 100 µM (inactive). The GI50 in assay [7], in assay [8], in assay [9], in assay [10], in [11] and in [12] was > 100 µM (inactive) each time. The GI50 in assay [13], in assay [14], in [15], in assay [16], in assay [17] and in assay [18] was > 100 µM (inactive) each time.
With `Cc1ccc(C(C)(C)C[P+](C)(c2ccccc2)c2ccccc2)cc1`, the GI50 in assay [1] is 9.18 µM (inactive); in [2], 23.9 µM (inactive); in assay [3], 99.3 µM; in assay [5] it was 11 µM (inactive); in assay [6], 20.4 µM (inactive); in assay [7], 27.2 µM (inactive). Also, the GI50 in assay [8] is 11.7 µM (inactive); in assay [9], 22.1 µM (inactive); in assay [10], 3.56 µM (inactive); in assay [11], 4.18 µM (inactive); in assay [12], 17.4 µM (inactive); in assay [13], 4.89 µM (inactive). Moreover, the GI50 in [15] is 11.6 µM (inactive); in [16] it was 7.76 µM (inactive); in assay [17], 12 µM (inactive); in assay [18], 3.42 µM (inactive).
As to `CC(=O)O[C@H]1CC[C@@]2(C)C(=CC[C@H]3C4=CC=C(C(C)=O)[C@@]4(C)CCC32)C1` (some centres undefined), the GI50 was 40.6 µM (inactive) in [1]; 34.8 µM (inactive) in [2]; 29.8 µM in [3]; 23.7 µM (inactive) in assay [4]; 11.4 µM (inactive) in assay [5]; 34.7 µM (inactive) in [6]. Moreover, the GI50 in [7] is 37.8 µM (inactive); in assay [9] it was > 100 µM (inactive); in assay [10], 24 µM (inactive); in assay [11], 31.9 µM (inactive); in [12], 20.9 µM (inactive); in [13] it was 28.2 µM (inactive). Also, the GI50 in [14] is 33.7 µM (inactive); in [15], 35.7 µM (inactive); in assay [16], 15.5 µM (inactive); in [17], 63.8 µM (inactive); in assay [18], 17.7 µM (inactive).
With `CCCC(O)C(NC(=O)CCl)C(=O)O` (centres undefined), the GI50 in assay [1] was > 100 µM (inactive); in [2] it was > 100 µM (inactive); in [3], greater than 100 µM; in assay [5] it was > 100 µM (inactive); in [6], > 100 µM (inactive); in assay [7] it was > 100 µM (inactive). The GI50 in [8], in [9], in assay [10], in [11], in [12] and in assay [13] was > 100 µM (inactive) in each case. Also, the GI50 in assay [15], in [16], in assay [17] and in assay [18] was > 100 µM (inactive) each time.
As for `NC(=O)c1ncn2c1NCC1OC2C(O)C1O` (centres undefined), the GI50 in assay [1], in [2], in assay [4], in [5], in [6] and in [7] was > 100 µM (inactive) in each case. For the same molecule, the GI50 in assay [8], in assay [9], in [10], in assay [11], in [12] and in [13] was > 100 µM (inactive) each time. The GI50 in assay [14], in [15], in assay [16], in assay [17] and in assay [18] was > 100 µM (inactive) throughout.
As to `CC(=O)Nc1cccc(/N=N/N(C)C)c1`, the GI50 in assay [1] was > 100 µM (inactive); in assay [2], > 100 µM (inactive); in [3] it was greater than 100 µM; in [5], > 100 µM (inactive); in assay [6], > 100 µM (inactive); in [7], > 31.6 µM (inactive). The GI50 in assay [8], in assay [9], in assay [10], in assay [11], in [12] and in [13] was > 100 µM (inactive) each time. In addition, the GI50 in assay [15], in assay [16], in assay [17] and in [18] was > 100 µM (inactive) in each case.
